Legend:
Type in all cases: physicochemical
[1] = Chemical stability in solid state, accelerated test at 60° C.
[2] = Solubility in various solvents at 37° C.; settings: aqueous buffer, ionic strength 0.2, 37° C., based on the weight of amlodipine
[3] = Light stability, 4 weeks at 25° C. with exposure to daylight, HPLC
From the text: A measurement was made of the contents of the salts with resort to HPLC under the same conditions as in the chemical stability test.

[4] = Chemical stability in aqueous state, 25° C., 4 weeks in the dark, HPLC; settings: distilled water
Method: The resulting aqueous solutions were stored at 25° C. for 4 weeks in the dark, after which a measurement was made of the contents of the salts with resort to HPLC under the same conditions as in the solid state.

Structure (SMILES) | Content, storage period 1 week ([1]; 1 week) [%] | Content, storage period 2 weeks ([1]; 2 weeks) [%] | Content, storage period 4 weeks ([1]; 4 weeks) [%] | Content, storage period initial ([1]; initial) [%] | solubility ([2]; pH 3 buffer) [µg/mL] | solubility ([2]; pH 4 buffer) [µg/mL] | solubility ([2]; pH 6 buffer) [µg/mL] | solubility ([2]; pH 7 buffer) [µg/mL] | solubility ([2]; pH 8 buffer) [µg/mL] | Color change on light exposure ([3]; 4 weeks, 25° C., daylight) | Content (HPLC), Stored 4 weeks, 25° C. daylight ([3]; 4 weeks, 25° C., daylight) [%] | Content (HPLC), Initial [3] [%] | Degraded impurity / content change in aqueous solution [4]
CCOC(=O)C1=C(COCCN)NC(C)=C(C(=O)OC)C1c1ccccc1Cl (stereo not drawn) [Besylate, Amlodipine Besylate] | 99.6 | 99.4 | 99.2 | 99.6 | 3250 | 3150 | 3190 | 1590 | 1390 | turned yellow from white | 82.5 | 99.2 | neither degraded impurity nor content change was found
CCOC(=O)C1=C(COCCN)NC(C)=C(C(=O)OC)C1c1ccccc1Cl.Cc1ccc(S(=O)(=O)O)cc1 (stereo not drawn) [Tosylate, Amlodipine Para-toluenesulfonate] |  |  |  |  |  |  |  |  |  |  | 72.0 | 99.2 | 
